Read-outs that look alike come from different tables or passages of the source.
Key:
Assay in all cases: KINOMEscan
Assay type in all cases: binding
MYLK2 = MYLK2 (Homo sapiens (Human), UniProt Q9H1R3); details: MYLK2, 10000 nM; read-out: Percent Control
FER = FER (Homo sapiens (Human), UniProt P16591); details: 10000 nM, read-out: Percent Control
CIT = CIT (Homo sapiens (Human), UniProt O14578); details: 10000 nM, read-out: Percent Control
[1] = target: RSK4(Kin.Dom.2-C-terminal) (Homo sapiens (Human), UniProt Q9UK32); details: 10000 nM, read-out: Percent Control
PIK3C2B = PIK3C2B (Homo sapiens (Human), UniProt O00750); details: 10000 nM, read-out: Percent Control
TNK1 = TNK1 (Homo sapiens (Human), UniProt Q13470); details: TNK1, 10000 nM; read-out: Percent Control
MET(M1250T) = MET(M1250T) (Homo sapiens (Human), UniProt P08581, M1250T); details: 10000 nM, read-out: Percent Control
[2] = target: RPS6KA5(Kin.Dom.2-C-terminal) (Homo sapiens (Human), UniProt O75582); details: 10000 nM, read-out: Percent Control
BMPR1A = BMPR1A (Homo sapiens (Human), UniProt P36894); details: 10000 nM, read-out: Percent Control
JNK1 = JNK1 (Homo sapiens (Human), UniProt P45983); details: JNK1, 10000 nM; read-out: Percent Control
MYLK4 = MYLK4 (Homo sapiens (Human), UniProt Q86YV6); details: MYLK4, 10000 nM; read-out: Percent Control
p38-alpha = p38-alpha (Homo sapiens (Human), UniProt Q16539); details: 10000 nM, read-out: Percent Control
IRAK3 = IRAK3 (Homo sapiens (Human), UniProt Q9Y616); details: IRAK3, 10000 nM; read-out: Percent Control
MARK2 = MARK2 (Homo sapiens (Human), UniProt Q7KZI7); details: MARK2, 10000 nM; read-out: Percent Control
MKNK2 = MKNK2 (Homo sapiens (Human), UniProt Q9HBH9); details: MKNK2, 10000 nM; read-out: Percent Control
DCAMKL3 = DCAMKL3 (Homo sapiens (Human), UniProt Q9C098); details: DCAMKL3, 10000 nM; read-out: Percent Control
ERBB2 = ERBB2 (Homo sapiens (Human), UniProt P04626); details: ERBB2, 10000 nM; read-out: Percent Control
TBK1 = TBK1 (Homo sapiens (Human), UniProt Q9UHD2); details: TBK1, 10000 nM; read-out: Percent Control
PRKCD = PRKCD (Homo sapiens (Human), UniProt Q05655); details: 10000 nM, read-out: Percent Control
CASK = CASK (Homo sapiens (Human), UniProt O14936); details: 10000 nM, read-out: Percent Control
KIT = KIT (Homo sapiens (Human), UniProt P10721); details: 10000 nM, read-out: Percent Control
ANKK1 = ANKK1 (Homo sapiens (Human), UniProt Q8NFD2); details: ANKK1, 10000 nM; read-out: Percent Control
PKN1 = PKN1 (Homo sapiens (Human), UniProt Q16512); details: PKN1, 10000 nM; read-out: Percent Control
MAP4K4 = MAP4K4 (Homo sapiens (Human), UniProt O95819); details: MAP4K4, 10000 nM; read-out: Percent Control
CDKL2 = CDKL2 (Homo sapiens (Human), UniProt Q92772); details: CDKL2, 10000 nM; read-out: Percent Control
MST3 = MST3 (Homo sapiens (Human), UniProt Q9Y6E0); details: MST3, 10000 nM; read-out: Percent Control
RDGFRB = RDGFRB (Homo sapiens (Human), UniProt P09619); details: 10000 nM, read-out: Percent Control
BUB1 = BUB1 (Homo sapiens (Human), UniProt O43683); details: BUB1, 10000 nM; read-out: Percent Control
AKT3 = AKT3 (Homo sapiens (Human), UniProt Q9Y243); details: AKT3, 10000 nM; read-out: Percent Control
[3] = target: JAK3(JH1domain-catalytic) (Homo sapiens (Human), UniProt P52333); details: 10000 nM, read-out: Percent Control
RIOK3 = RIOK3 (Homo sapiens (Human), UniProt O14730); details: RIOK3, 10000 nM; read-out: Percent Control
BRAF = BRAF (Homo sapiens (Human), UniProt P15056); details: 10000 nM, read-out: Percent Control
TAOK3 = TAOK3 (Homo sapiens (Human), UniProt Q9H2K8); details: TAOK3, 10000 nM; read-out: Percent Control
[4] = target: JAK1(JH1domain-catalytic) (Homo sapiens (Human), UniProt P23458); details: 10000 nM, read-out: Percent Control
JAK1(JH1domain-catalytic), sequence (P23458 875-1153): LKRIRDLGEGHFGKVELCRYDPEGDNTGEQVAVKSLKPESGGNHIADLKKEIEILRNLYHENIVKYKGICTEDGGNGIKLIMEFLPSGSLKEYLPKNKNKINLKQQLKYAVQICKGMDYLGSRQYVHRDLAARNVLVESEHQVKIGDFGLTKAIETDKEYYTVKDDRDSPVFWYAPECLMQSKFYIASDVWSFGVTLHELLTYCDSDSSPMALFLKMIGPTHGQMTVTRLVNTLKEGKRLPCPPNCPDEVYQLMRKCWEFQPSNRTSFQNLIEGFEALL

MARK2, sequence (Q7KZI7 whole entry): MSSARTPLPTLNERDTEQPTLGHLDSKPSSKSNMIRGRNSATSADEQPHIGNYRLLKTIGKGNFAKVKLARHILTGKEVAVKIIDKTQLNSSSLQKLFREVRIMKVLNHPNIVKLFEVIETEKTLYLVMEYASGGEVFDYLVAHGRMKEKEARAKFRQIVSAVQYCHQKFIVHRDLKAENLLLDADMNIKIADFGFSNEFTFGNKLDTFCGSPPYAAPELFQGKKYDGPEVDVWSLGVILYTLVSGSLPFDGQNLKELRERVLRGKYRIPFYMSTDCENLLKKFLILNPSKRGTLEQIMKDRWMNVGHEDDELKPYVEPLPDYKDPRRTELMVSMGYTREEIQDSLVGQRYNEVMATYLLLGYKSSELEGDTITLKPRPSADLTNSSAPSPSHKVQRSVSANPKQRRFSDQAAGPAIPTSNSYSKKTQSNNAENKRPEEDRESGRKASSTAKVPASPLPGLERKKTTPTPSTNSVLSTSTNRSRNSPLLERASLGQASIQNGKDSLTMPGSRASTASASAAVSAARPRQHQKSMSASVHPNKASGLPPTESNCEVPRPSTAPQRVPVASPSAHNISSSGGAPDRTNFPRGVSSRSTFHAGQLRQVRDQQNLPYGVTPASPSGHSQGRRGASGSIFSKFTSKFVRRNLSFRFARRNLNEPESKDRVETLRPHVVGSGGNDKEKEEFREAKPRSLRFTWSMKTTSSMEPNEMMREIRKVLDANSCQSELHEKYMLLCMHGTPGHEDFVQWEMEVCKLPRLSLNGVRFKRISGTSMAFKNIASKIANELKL
PKN1, sequence (Q16512 whole entry): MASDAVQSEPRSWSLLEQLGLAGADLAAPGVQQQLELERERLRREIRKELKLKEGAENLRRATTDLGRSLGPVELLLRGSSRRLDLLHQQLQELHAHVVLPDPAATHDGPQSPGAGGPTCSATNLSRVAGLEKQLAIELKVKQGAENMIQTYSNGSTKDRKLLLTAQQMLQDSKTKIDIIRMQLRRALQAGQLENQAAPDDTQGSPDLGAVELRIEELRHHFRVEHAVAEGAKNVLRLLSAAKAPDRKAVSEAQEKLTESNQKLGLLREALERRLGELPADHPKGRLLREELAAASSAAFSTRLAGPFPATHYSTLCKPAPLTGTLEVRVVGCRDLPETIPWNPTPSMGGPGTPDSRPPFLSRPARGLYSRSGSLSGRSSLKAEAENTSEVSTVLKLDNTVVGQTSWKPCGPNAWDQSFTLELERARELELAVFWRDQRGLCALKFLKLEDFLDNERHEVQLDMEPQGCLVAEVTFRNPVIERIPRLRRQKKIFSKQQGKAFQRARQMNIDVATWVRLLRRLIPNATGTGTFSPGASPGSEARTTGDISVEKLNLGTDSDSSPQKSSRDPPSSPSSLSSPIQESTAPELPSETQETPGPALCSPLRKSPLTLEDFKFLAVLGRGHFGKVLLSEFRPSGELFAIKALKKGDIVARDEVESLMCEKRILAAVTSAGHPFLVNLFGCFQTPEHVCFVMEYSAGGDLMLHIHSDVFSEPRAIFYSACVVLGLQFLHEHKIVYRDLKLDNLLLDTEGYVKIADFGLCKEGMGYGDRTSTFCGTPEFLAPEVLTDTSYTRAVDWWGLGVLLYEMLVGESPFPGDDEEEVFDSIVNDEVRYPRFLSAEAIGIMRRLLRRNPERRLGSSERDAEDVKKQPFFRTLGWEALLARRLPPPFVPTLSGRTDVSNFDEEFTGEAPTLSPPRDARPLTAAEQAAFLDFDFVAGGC
DCAMKL3, sequence (Q9C098 whole entry, looked up): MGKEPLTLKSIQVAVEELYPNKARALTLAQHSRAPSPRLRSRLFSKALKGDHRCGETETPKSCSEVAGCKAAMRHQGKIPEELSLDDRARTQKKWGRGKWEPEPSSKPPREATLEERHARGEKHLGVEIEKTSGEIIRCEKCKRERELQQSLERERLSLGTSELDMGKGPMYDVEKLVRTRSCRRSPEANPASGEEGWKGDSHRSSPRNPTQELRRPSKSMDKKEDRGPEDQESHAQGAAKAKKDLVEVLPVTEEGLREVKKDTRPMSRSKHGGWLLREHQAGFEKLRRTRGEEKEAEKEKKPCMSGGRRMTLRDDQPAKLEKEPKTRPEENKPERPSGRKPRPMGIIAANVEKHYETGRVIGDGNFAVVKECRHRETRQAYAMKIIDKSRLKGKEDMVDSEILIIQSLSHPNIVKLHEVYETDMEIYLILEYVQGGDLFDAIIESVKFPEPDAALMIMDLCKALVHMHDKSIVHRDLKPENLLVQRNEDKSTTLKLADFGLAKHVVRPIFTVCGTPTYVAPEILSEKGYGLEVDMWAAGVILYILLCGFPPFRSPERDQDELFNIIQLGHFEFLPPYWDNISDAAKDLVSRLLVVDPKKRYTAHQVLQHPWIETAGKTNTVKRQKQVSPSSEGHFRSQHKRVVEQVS
BMPR1A, sequence (P36894 24-532): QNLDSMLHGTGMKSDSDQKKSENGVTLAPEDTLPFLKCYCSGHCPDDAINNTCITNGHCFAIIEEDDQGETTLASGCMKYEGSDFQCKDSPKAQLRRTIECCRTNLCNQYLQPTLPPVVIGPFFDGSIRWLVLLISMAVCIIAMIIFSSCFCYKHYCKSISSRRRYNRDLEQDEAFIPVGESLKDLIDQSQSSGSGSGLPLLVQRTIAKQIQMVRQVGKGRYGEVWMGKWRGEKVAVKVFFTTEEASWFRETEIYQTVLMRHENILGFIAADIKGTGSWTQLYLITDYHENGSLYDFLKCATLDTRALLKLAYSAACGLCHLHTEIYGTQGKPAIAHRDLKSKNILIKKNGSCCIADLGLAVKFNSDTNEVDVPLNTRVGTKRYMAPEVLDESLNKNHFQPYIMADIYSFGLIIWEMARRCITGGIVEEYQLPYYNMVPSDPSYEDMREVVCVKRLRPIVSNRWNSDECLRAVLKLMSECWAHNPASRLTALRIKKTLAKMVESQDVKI
MYLK2, sequence (Q9H1R3 whole entry): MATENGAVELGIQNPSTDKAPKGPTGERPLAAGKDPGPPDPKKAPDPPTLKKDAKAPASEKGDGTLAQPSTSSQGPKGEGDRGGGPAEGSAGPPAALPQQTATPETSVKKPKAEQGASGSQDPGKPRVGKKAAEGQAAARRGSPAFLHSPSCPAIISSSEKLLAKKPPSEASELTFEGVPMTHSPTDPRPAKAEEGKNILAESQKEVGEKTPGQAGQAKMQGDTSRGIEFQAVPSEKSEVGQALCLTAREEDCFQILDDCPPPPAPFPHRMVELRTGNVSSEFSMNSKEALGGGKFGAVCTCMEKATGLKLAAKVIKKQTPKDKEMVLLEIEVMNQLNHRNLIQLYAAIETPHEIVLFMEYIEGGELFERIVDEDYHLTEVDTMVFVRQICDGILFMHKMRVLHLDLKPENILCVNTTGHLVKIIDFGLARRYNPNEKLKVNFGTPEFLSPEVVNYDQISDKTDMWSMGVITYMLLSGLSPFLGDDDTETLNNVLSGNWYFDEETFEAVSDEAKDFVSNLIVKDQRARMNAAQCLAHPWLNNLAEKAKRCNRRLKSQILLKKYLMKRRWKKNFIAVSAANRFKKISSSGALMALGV
IRAK3, sequence (Q9Y616 whole entry): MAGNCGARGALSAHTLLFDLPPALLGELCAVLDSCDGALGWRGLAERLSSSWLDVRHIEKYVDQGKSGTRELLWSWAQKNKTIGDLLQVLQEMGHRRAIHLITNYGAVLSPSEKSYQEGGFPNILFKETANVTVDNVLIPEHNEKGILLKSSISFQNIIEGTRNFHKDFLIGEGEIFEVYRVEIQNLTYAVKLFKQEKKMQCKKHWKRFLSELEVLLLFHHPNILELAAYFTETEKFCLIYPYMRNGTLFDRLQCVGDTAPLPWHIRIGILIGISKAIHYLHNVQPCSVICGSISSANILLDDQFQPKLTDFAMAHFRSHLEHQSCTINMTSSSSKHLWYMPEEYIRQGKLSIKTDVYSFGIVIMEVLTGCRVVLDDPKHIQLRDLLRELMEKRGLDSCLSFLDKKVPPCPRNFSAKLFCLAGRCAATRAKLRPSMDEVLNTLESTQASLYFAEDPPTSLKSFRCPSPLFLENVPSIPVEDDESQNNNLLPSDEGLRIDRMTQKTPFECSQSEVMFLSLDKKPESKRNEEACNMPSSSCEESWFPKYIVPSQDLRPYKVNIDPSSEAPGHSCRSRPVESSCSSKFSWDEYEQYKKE
JAK3(JH1domain-catalytic), sequence (P52333 822-1111): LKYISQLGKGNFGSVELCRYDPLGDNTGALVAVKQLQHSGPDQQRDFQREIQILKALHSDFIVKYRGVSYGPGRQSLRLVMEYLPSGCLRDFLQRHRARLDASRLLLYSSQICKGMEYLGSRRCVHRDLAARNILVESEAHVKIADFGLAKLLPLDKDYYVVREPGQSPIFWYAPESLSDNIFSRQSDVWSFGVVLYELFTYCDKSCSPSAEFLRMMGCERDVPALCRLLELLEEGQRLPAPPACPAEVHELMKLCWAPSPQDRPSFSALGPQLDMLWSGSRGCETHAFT
RSK4(Kin.Dom.2-C-terminal), sequence (Q9UK32 426-683): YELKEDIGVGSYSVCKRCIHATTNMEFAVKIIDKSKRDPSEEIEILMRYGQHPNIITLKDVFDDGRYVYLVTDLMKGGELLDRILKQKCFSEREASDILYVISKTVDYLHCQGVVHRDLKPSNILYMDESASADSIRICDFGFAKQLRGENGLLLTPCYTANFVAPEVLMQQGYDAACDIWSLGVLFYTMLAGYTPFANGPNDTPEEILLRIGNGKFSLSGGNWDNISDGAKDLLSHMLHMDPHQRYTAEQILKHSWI

Compound `COc1cc(N2CCC(N3CCN(C)CC3)CC2)ccc1Nc1ncc2c(n1)N(C)c1sc(C)nc1C(=O)N2` [Compound 3, 6-((2-methoxy-4-(4-(4-methylpiperazin-1-yl)piperidin-1-yl)phenyl)amino)-2,4-dimethyl-4,9-dihydro-10H-pyrimido[5,4-b]thiazolo[5,4-e][1,4]diazepin-10-one] has a remaining binding at 10 µM (MYLK2) of 84%, a remaining binding at 10 µM (FER) of 74% and a remaining binding at 10 µM (CIT) of 73%. The remaining binding at 10 µM [1] was 69%, the remaining binding at 10 µM (PIK3C2B) was 86% and the remaining binding at 10 µM (TNK1) was 53%. The remaining binding at 10 µM (MET(M1250T)) was 82%, the remaining binding at 10 µM [2] was 72% and the remaining binding at 10 µM (BMPR1A) was 81%. It also gave a remaining binding at 10 µM (JNK1) of 100%, a remaining binding at 10 µM (MYLK4) of 77% and a remaining binding at 10 µM (p38-alpha) of 75%. The remaining binding at 10 µM (IRAK3) was 80%, the remaining binding at 10 µM (MARK2) was 100% and the remaining binding at 10 µM (MKNK2) was 80%. The remaining binding at 10 µM (DCAMKL3) was 81%, the remaining binding at 10 µM (ERBB2) was 98% and the remaining binding at 10 µM (TBK1) was 71%. The remaining binding at 10 µM (PRKCD) was 86%, the remaining binding at 10 µM (CASK) was 83% and the remaining binding at 10 µM (KIT) was 54%. For the same compound, the remaining binding at 10 µM (ANKK1) was 80%, the remaining binding at 10 µM (PKN1) was 69% and the remaining binding at 10 µM (MAP4K4) was 79%. The remaining binding at 10 µM (CDKL2) was 75%, the remaining binding at 10 µM (MST3) was 89% and the remaining binding at 10 µM (RDGFRB; RDGFRB) was 50%. The remaining binding at 10 µM (BUB1) was 100%, the remaining binding at 10 µM (AKT3) was 100% and the remaining binding at 10 µM [3] was 83%. The remaining binding at 10 µM (RIOK3) was 79%, the remaining binding at 10 µM (BRAF) was 86% and the remaining binding at 10 µM (TAOK3) was 100%. It also gave a remaining binding at 10 µM [4] of 85%.

With `COc1cc(N2CCC(N3CCN(C)CC3)CC2)ccc1Nc1ncc2c(n1)N(C)c1sc(C)nc1C(=O)N2C` [Compound 5, 6-((2-methoxy-4-(4-(4-methylpiperazin-1-yl)piperidin-1-yl)phenyl)amino)-2,4,9-trimethyl-4,9-dihydro-10H-pyrimido[5,4-b]thiazolo[5,4-e][1,4]diazepin-10-one] the remaining binding at 10 µM (MYLK2) was 97%, the remaining binding at 10 µM (FER) was 57% and the remaining binding at 10 µM (CIT) was 98%. For the same compound, the remaining binding at 10 µM [1] was 67%, the remaining binding at 10 µM (PIK3C2B) was 100% and the remaining binding at 10 µM (TNK1) was 10%. The remaining binding at 10 µM (MET(M1250T)) was 100%, the remaining binding at 10 µM [2] was 63% and the remaining binding at 10 µM (BMPR1A) was 97%. For the same compound, the remaining binding at 10 µM (JNK1) was 100%, the remaining binding at 10 µM (MYLK4) was 100% and the remaining binding at 10 µM (p38-alpha) was 93%. The remaining binding at 10 µM (IRAK3) was 99%, the remaining binding at 10 µM (MARK2) was 100% and the remaining binding at 10 µM (MKNK2) was 90%. It also gave a remaining binding at 10 µM (DCAMKL3) of 86%, a remaining binding at 10 µM (ERBB2) of 100% and a remaining binding at 10 µM (TBK1) of 88%. For the same compound, the remaining binding at 10 µM (PRKCD) was 94%, the remaining binding at 10 µM (CASK) was 100% and the remaining binding at 10 µM (KIT) was 100%. It also gave a remaining binding at 10 µM (ANKK1) of 92%, a remaining binding at 10 µM (PKN1) of 100% and a remaining binding at 10 µM (MAP4K4) of 100%. For the same compound, the remaining binding at 10 µM (CDKL2) was 95%, the remaining binding at 10 µM (MST3) was 90% and the remaining binding at 10 µM (RDGFRB; PDGFRB) was 100%. For the same compound, the remaining binding at 10 µM (BUB1) was 100%, the remaining binding at 10 µM (AKT3) was 100% and the remaining binding at 10 µM [3] was 100%. For the same compound, the remaining binding at 10 µM (RIOK3) was 99%, the remaining binding at 10 µM (BRAF) was 95% and the remaining binding at 10 µM (TAOK3) was 77%. For the same compound, the remaining binding at 10 µM [4] was 100%.

Reference: US12365696B2, “Small-molecule focal adhesion kinase (FAK) inhibitors” (DANA-FARBER CANCER INSTITUTE, INC., priority 2019, dated 2025)
